Test results as given in patent US11173145B2, “Compounds useful as inhibitors of indoleamine 2,3-dioxygenase and/or tryptophan dioxygenase” (Board of Regents, The University of Texas System, priority 2017, dated 2021).
pIC50: −log10 of the molar value.

Molecular target: T1, IDO1 (Homo sapiens, UniProt P14902)
T1 construct: endogenous in cells; host or cells: HeLa cells (ATCC), IFNgamma-induced
Assay: IDO1 cell-based assay (HeLa cells, IFNgamma-induced, N-formylkynurenine/L-tryptophan by RFMS)
Settings: 10 ng/mL IFNgamma, 24 hours
Procedure, shortened: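 HeLa cells stimulated with 10 ng/mL IFNgamma and exposed to compound (0.5% DMSO final) for 24 h at 37 °C. Conditioned media deproteinized, then N-formylkynurenine and L-tryptophan quantified by RapidFire MS with deuterated tryptophan internal standard; IC50 by curve fitting. Viability checked by CellTiter-Glo.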

T1 sequence (P14902 whole entry): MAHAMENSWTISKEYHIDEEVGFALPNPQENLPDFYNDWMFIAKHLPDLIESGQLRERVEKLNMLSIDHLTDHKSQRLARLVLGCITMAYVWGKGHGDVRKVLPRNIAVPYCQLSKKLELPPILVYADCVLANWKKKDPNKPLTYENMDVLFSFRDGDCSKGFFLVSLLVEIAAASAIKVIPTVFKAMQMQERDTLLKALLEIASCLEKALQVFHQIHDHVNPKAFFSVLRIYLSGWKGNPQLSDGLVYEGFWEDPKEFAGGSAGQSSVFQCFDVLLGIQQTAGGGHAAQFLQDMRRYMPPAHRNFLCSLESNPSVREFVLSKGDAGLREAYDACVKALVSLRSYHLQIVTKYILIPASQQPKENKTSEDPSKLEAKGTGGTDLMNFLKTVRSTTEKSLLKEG

Row | Compound | pIC50
1 | CCC(NC(=O)c1ccc(Cl)cc1)[C@H]1[C@@H]2C[C@@H](N=[N+]=[N-])C[C@@H]21 (stereo partly drawn) [Compound 90, N-(1-((1R,3s,5S,6r)-3-azidobicyclo[3.1.0]hexan-6-yl)propyl)-4-chlorobenzamide] | 5.70 to 6.70
2 | CCC(NC(=O)c1ccc(Cl)cc1)[C@H]1[C@@H]2C[C@@H](Oc3c(Cl)ccnc3C)C[C@@H]21 (stereo partly drawn) [Compound 92, 4-chloro-N-(1-((1R,3s,5S,6r)-3-((4-chloro-2-methylpyridin-3-yl)oxy)bicyclo[3.1.0]hexan-6-yl)propyl)benzamide] | > 6.70
3 | CCC(NC(=O)c1ccc(Cl)cc1)[C@H]1[C@@H]2C[C@@H](Oc3ccnc(C)c3F)C[C@@H]21 (stereo partly drawn) [Compound 93, 4-chloro-N-(1-((1R,3s,5S,6r)-3-((3-fluoro-2-methylpyridin-4-yl)oxy)bicyclo[3.1.0]hexan-6-yl)propyl)benzamide] | > 6.70
4 | CCC(NC(=O)c1ccc(Cl)cc1)[C@H]1[C@@H]2C[C@@H](n3cc(C(=O)O)nn3)C[C@@H]21 (stereo partly drawn) [Compound 94, 1-((1R,3s,5S,6r)-6-(1-(4-chlorobenzamido)propyl)bicyclo[3.1.0]hexan-3-yl)-1H-1,2,3-triazole-4-carboxylic acid] | < 5.30
5 | CCC(NC(=O)c1ccc(Cl)cc1)[C@H]1[C@@H]2C[C@@H](n3cc(C(N)=O)nn3)C[C@@H]21 (stereo partly drawn) [Compound 95, 1-((1R,3s,5S,6r)-6-(1-(4-chlorobenzamido)propyl)bicyclo[3.1.0]hexan-3-yl)-1H-1,2,3-triazole-4-carboxamide] | < 5.30
6 | CCC(NC(=O)c1ccc(Cl)cc1)C1C2CC(OCC3CCOCC3)CC21 [Compound 96, 4-chloro-N-(1-((1R,3s,5S,6r)-3-((tetrahydro-2H-pyran-4-yl)methoxy)bicyclo[3.1.0]hexan-6-yl)propyl)benzamide] | > 6.70
7 | CCC(NC(=O)c1ccc(Cl)cc1)[C@H]1[C@@H]2C[C@@H](n3cc(C(=O)N4CCCC4)nn3)C[C@@H]21 (stereo partly drawn) [Compound 98, 4-chloro-N-(1-((1R,3s,5S,6r)-3-(4-(pyrrolidine-1-carbonyl)-1H-1,2,3-triazol-1-yl)bicyclo[3.1.0]hexan-6-yl)propyl)benzamide] | > 6.70
8 | CCC(NC(=O)c1ccc(Cl)cc1)[C@H]1[C@@H]2C[C@@H](n3nnc4ccccc43)C[C@@H]21 (stereo partly drawn) [Compound 99, N-(1-((1R,3s,5S,6r)-3-(1H-benzo[d][1,2,3]triazol-1-yl)bicyclo[3.1.0]hexan-6-yl)propyl)-4-chlorobenzamide] | > 6.70
9 | CCC(NC(=O)c1ccc(Cl)cc1)[C@H]1[C@@H]2C[C@@H](n3nc4ccccc4n3)C[C@@H]21 (stereo partly drawn) [Compound 100, N-(1-((1R,3s,5S,6r)-3-(2H-benzo[d][1,2,3]triazol-2-yl)bicyclo[3.1.0]hexan-6-yl)propyl)-4-chlorobenzamide] | > 6.70
10 | CCC(NC(=O)c1ccc(Cl)cc1)[C@H]1[C@@H]2C[C@@H](OC3CCOCC3)C[C@@H]21 (stereo partly drawn) [Compound 101, 4-chloro-N-(1-((1R,3s,5S,6r)-3-((tetrahydro-2H-pyran-4-yl)oxy)bicyclo[3.1.0]hexan-6-yl)propyl)benzamide] | 5.70 to 6.70
11 | CC[C@H](NC(=O)c1ccc(Cl)cc1)[C@H]1[C@@H]2C[C@@H](Oc3cnnc4ccccc34)C[C@@H]21 [Compound 103, 4-chloro-N-((S)-1-((1R,3R,5S,6r)-3-(cinnolin-4-yloxy)bicyclo[3.1.0]hexan-6-yl)propyl)benzamide] | > 6.70
12 | CC[C@@H](NC(=O)c1ccc(Cl)cc1)[C@H]1[C@@H]2C[C@@H](Oc3cnnc4ccccc34)C[C@@H]21 [Compound 104, 4-chloro-N-((R)-1-((1R,3S,5S,6r)-3-(cinnolin-4-yloxy)bicyclo[3.1.0]hexan-6-yl)propyl)benzamide] | > 6.70
13 | CC(NC(=O)c1ccc(C#N)cc1)C1[C@H]2CC(O)C[C@@H]12 (stereo partly drawn) [Compound 105, 4-cyano-N-(1-((1R,3r,5S,6r)-3-hydroxybicyclo[3.1.0]hexan-6-yl)ethyl)benzamide] | < 5.30
14 | CC(NC(=O)c1ccc(C#N)cc1)C1[C@H]2CC(O)C[C@@H]12 (stereo partly drawn) [Compound 106, 4-cyano-N-(1-((1R,3s,5S,6r)-3-hydroxybicyclo[3.1.0]hexan-6-yl)ethyl)benzamide] | < 5.30
15 | CC(NC(=O)c1ccc(C#N)cc1)C1[C@H]2CC(Oc3ncnc4ccc(F)cc34)C[C@@H]12 (stereo partly drawn) [Compound 107, 4-cyano-N-(1-((1R,3s,5S,6r)-3-((6-fluoroquinazolin-4-yl)oxy)bicyclo[3.1.0]hexan-6-yl)ethyl)benzamide] | > 6.70
16 | CC(NC(=O)c1ccc(C#N)cc1)[C@H]1[C@@H]2C[C@@H](n3cnc4ccc(F)cc4c3=O)C[C@@H]21 (stereo partly drawn) [Compound 108, 4-cyano-N-(1-((1R,3s,5S,6r)-3-(6-fluoro-4-oxoquinazolin-3(4H)-yl)bicyclo[3.1.0]hexan-6-yl)ethyl)benzamide] | > 6.70
17 | O=C(Cc1ccc(Cl)cc1)NC1C2CN(c3ccnc4ccc(F)cc34)CC21 (stereo not shown) [Compound 109, 2-(4-Chlorophenyl)-N-(3-(6-fluoroquinolin-4-yl)-3-azabicyclo[3.1.0]hexan-6-yl)acetamide] | < 5.30
18 | O=C(NC1C2CN(c3ccnc4ccc(F)cc34)CC21)C(CO)c1ccccc1 (stereo not shown) [Compound 110, N-(3-(6-fluoroquinolin-4-yl)-3-azabicyclo[3.1.0]hexan-6-yl)-3-hydroxy-2-phenylpropanamide] | < 5.30
19 | O=C(NC1C2CN(c3ccnc4ccc(F)cc34)CC21)C(O)c1ccc(Br)cc1 (stereo not shown) [Compound 111, 2-(4-bromophenyl)-N-(3-(6-fluoroquinolin-4-yl)-3-azabicyclo[3.1.0]hexan-6-yl)-2-hydroxyacetamide] | < 5.30
20 | O=C(Cc1ncc(Cl)cc1F)NC1C2CN(c3ccnc4ccc(F)cc34)CC21 (stereo not shown) [Compound 112, 2-(5-chloro-3-fluoropyridin-2-yl)-N-(3-(6-fluoroquinolin-4-yl)-3-azabicyclo[3.1.0]hexan-6-yl)acetamide] | < 5.30
21 | CCC(NC(=O)c1ccc(Cl)cc1)[C@H]1[C@@H]2C=CC[C@@H]21 (stereo partly drawn) [Compound 113, N-(1-((1R,5S,6R)-bicyclo[3.1.0]hex-2-en-6-yl)propyl)-4-chlorobenzamide] | 5.70 to 6.70
22 | CCC(NC(=O)c1ccc(Cl)cc1)[C@H]1[C@@H]2C[C@@H](N3C(=O)C(=O)c4ccccc43)C[C@@H]21 (stereo partly drawn) [Compound 114, 4-chloro-N-(1-((1R,3s,5S,6r)-3-(2,3-dioxoindolin-1-yl)bicyclo[3.1.0]hexan-6-yl)propyl)benzamide] | 5.70 to 6.70
23 | COc1ccc(C(=O)NC(C)[C@H]2[C@@H]3C[C@@H](Oc4ncnc5ccc(F)cc45)C[C@@H]32)cn1 (stereo partly drawn) [Compound 115, N-(1-((1R,3s,5S,6r)-3-((6-fluoroquinazolin-4-yl)oxy)bicyclo[3.1.0]hexan-6-yl)ethyl)-6-methoxynicotinamide] | > 6.70
24 | CCC(NC(=O)c1ccc(Cl)cc1)[C@H]1[C@@H]2C[C@@H](NS(=O)(=O)c3ccccc3)C[C@@H]21 (stereo partly drawn) [Compound 116, 4-chloro-N-(1-((1R,3s,5S,6r)-3-(phenylsulfonamido)bicyclo[3.1.0]hexan-6-yl)propyl)benzamide] | 5.70 to 6.70
25 | CCC(NC(=O)c1ccc(Cl)cc1)[C@H]1[C@@H]2C[C@@H](NC(=O)c3ccc4ccccc4n3)C[C@@H]21 (stereo partly drawn) [Compound 118, N-((1R,3s,5S,6r)-6-(1-(4-chlorobenzamido)propyl)bicyclo[3.1.0]hexan-3-yl)quinoline-2-carboxamide] | > 6.70
